# According to patent US20220105183A1, “MICRO-NANO STRUCTURE FORMED BY SELF-ASSEMBLING ORGANIC SMALL MOLECULE COMPOUND AND USE THEREOF” (Qingdao University of Science and Technology, priority 2018, published 2022):
# Test: Photodynamic effect test with carboxy-H2DCFDA
# Conditions: 10 μM in water with 25 μM carboxy-H2DCFDA, 808 nm laser 10 minutes
# Protocol: The control group only added carboxy-H2DCFDA compound. Irradiated with 808 nm laser for 10 minutes, and the sample was lowered to room temperature, and its fluorescence emission spectrum (Ex=495 nm, Em=530 nm) was tested. […] It has been verified that other compounds of the present invention have no similar photodynamic effect.
smiles,measurement,value
CCN1C(=CC=C2CCCC(C=CC3=C(C#N)C(=C(C#N)C#N)OC3(C)C)=C2Cl)C(C)(C)c2ccccc21 [II-1],production of reactive oxygen radicals (photodynamic effect),does not produce reactive oxygen radicals (ROS)
